Data published in patent US20090227606A1, “Methods for Preventing or Treating Acute and Chronic Pain” (priority 2006, published 2009).
“Also recorded” adds a separate entry of the source.

Legend:
[1] = system: GLAST; test: Western blot of cultured astrocytes, GLAST protein; type: cell-based, rat
Experimental: After approximately 14 days (2 days after subplating into plates, DIV 14) astrocytes had formed a confluent monolayer. […] Phase contrast microscopy was then carried out in order to assess the morphology of cells after the various treatments. Length of astrocyte processes was quantified by measuring all processes in 2-3 phase contrast images/group by an independent observer, blinded to the treatment groups using Image J v1.34s (National Institutes of Health, Bethesda, Md.).
Cells were scraped into PBS containing a protease inhibitor cocktail (1:1000, Sigma Chemical Co., St. Louis, Mo.) and then lysed by sonication in 5 one-second pulses. The samples were stored at −80° C. until use. Total protein was determined using the Lowry method (DC assay, Bio-Rad, Hercules, Calif.). Forty micrograms of protein (diluted in sample buffer and boiled) and standard protein markers were subjected to SDS/7.5% polyacrylamide gel electrophoresis and transferred to polyvinylidene difluoride (PVDF) membranes. Nonspecific binding was blocked by incubation with 5% milk/PBS-Tween at room temperature for 1 hour followed by incubation overnight at 4° C. with rabbit anti-GLT-1 (1:500) or guinea pig anti-GLAST (1:2500). The following day, blots were washed and incubated for 1 hour at room temperature with goat anti-rabbit HRP-conjugated secondary (1:3000) or goat anti-guinea pig HRP-conjugated secondary antibody (1:5000) and visualized with enhanced chemiluminescence (ECL). Images were obtained using the Typhoon Imaging System (Amersham-GE Healthcare, Piscataway, N.J.). Finally, blots were incubated for 15 minutes in stripping buffer and reprobed with a monoclonal mouse anti-β-actin antibody (1:10,000) as a loading control. Densitometric analysis was performed using ImageQuant 5.2 (Molecular Dynamics, GE Healthcare, Piscataway, N.J.).

[2] = system: cAMP; test: cAMP levels in treated astrocytes, radio-receptor competition assay; type: cell-based, rat; conditions: days 3 and 7
Experimental: Subsequently, cells were harvested and boiled for 3 minutes followed by high-speed (8,000×g) centrifugation. Fifty microliters of the resultant supernatant (total of 300 μl) was used to determine cAMP levels in the competition assay. cAMP levels were measured using a radio-receptor competition assay. In brief, [^3H] cAMP was used in competition for a cAMP binding protein (PKA) against known concentrations of non-radiolabeled cAMP, followed by determination of the unknowns. The reaction was allowed to proceed for 2 hours at 4° C. Charcoal was used to remove excess unbound cAMP. Finally, samples were counted in 5 ml Liquiscint™ (National Diagnostics, Atlanta, Ga.).

[3] = system: L5 spinal nerve transected mice; test: Mechanical allodynia after L5 spinal nerve transection in eGFP-GLT-1/DsRed-GLAST transgenic mice; type: in vivo, mouse; conditions: for first day on which inhibition of mechanical allodynia was evident: 10 mg/kg i.p. daily
Experimental: In addition to studies using a rat model of pain for examining the role of glutamate transporters in the therapeutic response (analgesic) of propentofylline treatment, studies were also performed in a double transgenic reporter mouse line that expressed eGFP-GLT-1/DsRed-GLAST. Use of the transgenic mouse model further defined the effect of propentofylline on glutamate transporters, GLT-1 and GLAST. The animals were injected intraperitoneally with 10 mg/kg propentofylline in sterile saline or saline vehicle alone (n=5 to 8 per group). The first injections were administered one hour prior to L5 spinal nerve transection and continued daily in the evening (between 5 and 7 PM) until day 12 post-transection. Mice received either an L5 spinal nerve transection or sham surgery on day 0. The development of mechanical allodynia was monitored on days 1, 3, 5, 7, 9 and 12 as described for rats previously. The monitoring was performed in the morning at approximately 15 hours post-propentofylline or saline injection. Mice were transcardially perfused on day 12 post-transection, spinal cords were removed, and the tissue was processed for immunohistochemistry.
Transgenic mice on a C57B1/6 background were created according to the methods previously described (Regan et al. 2006. J. Neuroscience, in press). Briefly, in order to determine where in the central nervous system GLAST is expressed, transgenic mice were created using a bacterial artificial chromosome containing the GLAST gene plus 18 kb of DNA upstream of the first exon and 60 kb downstream of the last exon. DsRed cDNA was inserted into the first exon to allow expression of DsRed instead of GLAST when the promoter is active. Similarly, in order to investigate the distribution of GLT-1, transgenic mice expressing GLT-1 with eGFP running from the promoter were also created. These two types of transgenic mice were crossed and the resultant double transgenic eGFP-GLT-1/DsRed-GLAST mice were used in the experiments at 8 to 10 weeks of age.

[4] = system: L5 spinal nerve transection; conditions: systemically or intrathecally administered; Sweitzer et al. 2001; cited from earlier work
[5] = system: GLT-1; test: Immunocytochemistry of cultured astrocytes, GLT-1 staining; type: cell-based, rat; conditions: treated astrocytes
Experimental: Primary astrocyte-enriched cultures were plated onto sterile 18 mm glass coverslips. After three washes in PBS, cells were permeabilized in 5% glacial acetic acid/95% ethanol (acid-alcohol) for 10 minutes. After washing, cells were incubated in a 1% normal goat serum for 30 minutes and then overnight at 4° C. in primary mouse anti-GFAP (1:500), rabbit anti-GLT-1 (1:500) or guinea pig anti-GLAST (1:2000). The following day, cells were washed and then incubated for 2 hours at room temperature with goat anti-mouse Alexa Fluor™-555 (Invitrogen Corporation, Carlsbad, Calif.) goat anti-guinea pig Alexa Fluor™-488 (Invitrogen Corporation, Carlsbad, Calif.) or goat anti-rabbit Alexa Fluor™-488 (Invitrogen Corporation, Carlsbad, Calif.; all at 1:250). Finally, cells were post-fixed in acid-alcohol and mounted with Vectashield (Vector Labs, Burlingame, Calif.) containing 4′,6-diamidino-2-phenylindole dihydrochloride hydrate (DAPI, Sigma Chemical Co., St Louis, Mo.), in order to visualize cell nuclei. The sections were examined with a fluorescence microscope, and images were captured with a Q-Fire cooled camera (Olympus, Melville, N.Y.). Confocal microscopy was also performed using a Zeiss LSM 510 Meta confocal microscope (Carl Zeiss AG, Oberkochen, Germany). Merged color images were processed using Adobe Photoshop 7.0 (Adobe Systems, San Jose, Calif.).

## CCCn1cnc2c1c(=O)n(CCCCC(C)=O)c(=O)n2C [propentofylline]
[1]; 3 or 7 days, normalized to β-actin
  GLAST protein level, in words: dose-dependently increased levels of GLAST protein
[1]; 7-day treatment, 1000 μM
  increase in GLAST protein: 6 fold
[2]
  relative cAMP/db-cAMP levels: did not lead to elevation in cAMP at 3 or 7 days; also recorded: did not enhance cAMP activity
[3]; 0.008 g filament
  first day on which inhibition of mechanical allodynia was evident: 3 days
[3]; 10 mg/kg intraperitoneally daily, from one hour prior to transection
  mechanical allodynia (0.008 g and 0.02 g von Frey filaments): significant decrease in mechanical allodynia; also recorded: robustly inhibited the development of mechanical allodynia in mice; also recorded: remained similar to the sham control mice at every time point for both filaments
[3]; 0.02 g filament
  first day on which inhibition of mechanical allodynia was evident: 1 days
[4]
  mechanical allodynia induced by L5 spinal nerve transection: exhibits anti-allodynic properties; also recorded: attenuated mechanical allodynia
[5]
  GLT-1 staining: concomitant increase in GLT-1 staining
